Experiments:
Details in all cases: 72 h
Caco-2 [1] = test: cell viability relative to DMSO; higher = less toxic
Calu-3 [2] = test: as above
HepG2 [3] = test: as above
U2OS [4] = test: as above
Vero E6 [5] = test: as above
Calu-3 [6] = test: relative viability EC50 (midpoint between 100% and the lowest measured viability); higher = less toxic
Caco-2 [7] = test: drug sensitivity score (DSS) for viability; higher = more toxic; extreme values may be limits of the assay
Calu-3 [8] = test: as above
HepG2 [9] = test: as above
U2OS [10] = test: as above
Vero E6 [11] = test: as above
HepG2 [12] = test: relative viability EC50 (midpoint between 100% and the lowest measured viability); higher = less toxic
U2OS [13] = test: as above
Vero E6 [14] = test: as above

Row | SMILES | cell viability (Caco-2 [1]; 1 nM) [%] | cell viability (Caco-2 [1]; 10 nM) [%] | cell viability (Caco-2 [1]; 100 nM) [%] | cell viability (Caco-2 [1]; 1000 nM) [%] | cell viability (Caco-2 [1]; 10000 nM) [%] | cell viability (Calu-3 [2]; 1 nM) [%] | cell viability (Calu-3 [2]; 10 nM) [%] | cell viability (Calu-3 [2]; 100 nM) [%] | cell viability (Calu-3 [2]; 1000 nM) [%] | cell viability (Calu-3 [2]; 10000 nM) [%] | cell viability (HepG2 [3]; 1 nM) [%] | cell viability (HepG2 [3]; 10 nM) [%] | cell viability (HepG2 [3]; 100 nM) [%] | cell viability (HepG2 [3]; 1000 nM) [%] | cell viability (HepG2 [3]; 10000 nM) [%] | cell viability (U2OS [4]; 1 nM) [%] | cell viability (U2OS [4]; 10 nM) [%] | cell viability (U2OS [4]; 100 nM) [%] | cell viability (U2OS [4]; 1000 nM) [%] | cell viability (U2OS [4]; 10000 nM) [%] | cell viability (Vero E6 [5]; 1 nM) [%] | cell viability (Vero E6 [5]; 10 nM) [%] | cell viability (Vero E6 [5]; 100 nM) [%] | cell viability (Vero E6 [5]; 1000 nM) [%] | cell viability (Vero E6 [5]; 10000 nM) [%] | relative viability EC50 (Calu-3 [6]) [µM] | drug sensitivity score (Caco-2 [7]) | drug sensitivity score (Calu-3 [8]) | drug sensitivity score (HepG2 [9]) | drug sensitivity score (U2OS [10]) | drug sensitivity score (Vero E6 [11]) | relative viability EC50 (HepG2 [12]) [µM] | relative viability EC50 (U2OS [13]) [µM] | relative viability EC50 (Vero E6 [14]) [µM]
1 | CN1CCN(c2ccc(Nc3ncc4cc(C#N)c(=O)n(C5CCCC5)c4n3)cc2)CC1 | 98 | 93.9 | 101 | 92.3 | 74.9 | 105 | 103 | 98.9 | 87.9 | 111 | 99.8 | 99.7 | 102 | 88.8 | 52.9 | 100 | 98 | 102 | 98.3 | 70 | 105 | 107 | 107 | 99.1 | 58.1 | > 10 | 2 | 0 | 4.2 | 1.5 | 2.2 |  |  | 
2 | FC(F)(F)c1cc(NC(=S)Nc2ccc(Br)cc2-c2nnn[nH]2)cc(C(F)(F)F)c1 | 96.6 | 106 | 95.3 | 88.7 | 57.9 | 98.8 | 102 | 101 | 103 | 99.3 | 99.3 | 92.7 | 98.7 | 90.4 | 85.6 | 99.9 | 104 | 97.7 | 97.6 | 97.5 | 95.8 | 102 | 93.3 | 102 | 83 | > 10 | 3.7 | 0 | 0.2 | 0 | 0.3 | > 10 | > 10 | > 10
3 | O=C(c1cn(Cc2cncn2Cc2ccc(Br)cc2)cc1-c1cccc2ccccc12)N1CCOCC1 | 99.1 | 96.1 | 94.4 | 78.1 | 63.5 | 104 | 96.7 | 98.6 | 68.1 | 72.1 | 107 | 90.6 | 98.3 | 57.1 | 16.3 | 97.3 | 99.4 | 90.5 | 80.3 | 39.9 | 99.8 | 97.7 | 95.4 | 88.1 | 64.5 |  | 4.3 | 5.6 | 9.8 | 5.5 | 2.9 | 0.972 | 1.49 | 
4 | N#C/C(=C\c1ccc(O)c(O)c1)C(=O)NCCCc1ccccc1 [AG-555] | 96.7 | 100 | 113 | 84.1 | 68.1 | 112 | 95.2 | 101 | 105 | 88.4 | 95.5 | 89.9 | 95.8 | 95.4 | 74.7 | 99 | 99.5 | 103 | 99.1 | 88.7 | 102 | 102 | 103 | 103 | 79.7 | > 10 | 3.4 | 0 | 1.7 | 0 | 0.5 |  | > 10 | > 10
5 | c1cc(Nc2cc(C3CC3)n[nH]2)nc(Nc2ccc3[nH]cnc3c2)n1 [APY-29] | 88.9 | 101 | 94.7 | 94.8 | 72.5 | 98.1 | 100 | 102 | 37.8 | 66.9 | 96.4 | 94.2 | 93.1 | 14.2 | 5.2 | 95.2 | 102 | 100 | 55.4 | 5.4 | 101 | 94.1 | 93.5 | 86.9 | 13.8 | 0.337 | 1.9 | 11.2 | 16.6 | 10.9 | 7 | 0.339 | 1.05 | 1.97
6 | Clc1ccc(C2(c3ccc(-c4cn[nH]c4)cc3)CCNCC2)cc1 [AT7867] | 103 | 93.3 | 105 | 98.2 | 73.9 | 99.7 | 98.7 | 110 | 132 | 79.5 | 102 | 101 | 97.6 | 84.9 | 54.2 | 103 | 95.1 | 94.9 | 90.3 | 34.8 | 100 | 97 | 97.5 | 84.9 | 39.8 | > 10 | 1.3 | 0.2 | 4.4 | 5.2 | 5.6 |  | 2 | 1.55
7 | CC(C)(C)c1ccc(NC(=O)N2CCN(c3ncccc3Cl)CC2)cc1 [BCTC] | 88.8 | 99.6 | 92.8 | 89.9 | 62.2 | 98.1 | 101 | 99.5 | 102 | 71.2 | 99.3 | 92.7 | 96.7 | 102 | 93.3 | 99.3 | 106 | 97.4 | 101 | 95 | 99 | 101 | 100 | 94.4 | 86.1 |  | 3 | 1.1 | 0 | 0 | 0.5 | > 10 | > 10 | > 10
8 | CC(C)CCN1c2nc(Nc3cc(F)c(O)c(F)c3)ncc2N(C)C(=O)[C@@H]1C [BI-D1870] | 95.1 | 102 | 97.5 | 96.6 | 71.1 | 96 | 107 | 90.2 | 83.7 | 63.1 | 105 | 92.8 | 102 | 97.6 | 58.9 | 102 | 103 | 99 | 98.7 | 71.4 | 105 | 98.7 | 96.5 | 86.2 | 30.9 |  | 1.8 | 3.5 | 2.4 | 1.4 | 6.1 |  |  | 1.74
9 | Cc1cc(C(=O)Nc2nc3cccc(Cl)c3n2[C@@H]2CCCCN(C(=O)/C=C/CN(C)C)C2)ccn1 [EGF816] | 95.5 | 94.3 | 98.1 | 93.7 | 72.3 | 102 | 95.9 | 86.9 | 51.6 | 24.6 | 107 | 100 | 96 | 94.5 | 32.1 | 101 | 98.9 | 99.3 | 98.4 | 77.3 | 104 | 106 | 102 | 82.1 | 36.8 | 0.512 | 2.1 | 10.8 | 4.6 | 1 | 6.2 | 2.5 | > 10 | 1.45
10 | Nc1ccc2ncnc(NCCc3ccc(Oc4ccccc4)cc3)c2c1 [EVP4593] | 104 | 96.9 | 88 | 78.4 | 74.5 | 106 | 98.9 | 97.7 | 92.1 | 86.5 | 109 | 109 | 78.1 | 20.2 | 19.4 | 103 | 96.3 | 94.7 | 67.4 | 64.5 | 93.5 | 90.2 | 91.1 | 73.3 | 77 | > 10 | 4.3 | 0.3 | 18 | 6.3 | 4.4 | 0.149 |  | 
11 | NC(=S)N/N=C/c1coc2ccccc2c1=O.[Cl][Cu][Cl] [FPA-124] | 106 | 103 | 96.1 | 104 | 70.4 | 104 | 103 | 102 | 99 | 106 | 94.5 | 101 | 97.5 | 109 | 95.3 | 105 | 99.1 | 101 | 97.3 | 99.8 |  |  |  |  |  | > 10 | 1 | 0 | 0 | 0 |  | > 10 | > 10 | 
12 | CCCCOc1ccc(CC/C=C2\SC(=O)N(CCN)C2=O)cc1 [K145] | 97.9 | 106 | 95.1 | 91.2 | 73.9 | 92.1 | 108 | 87.1 | 101 | 92.5 | 107 | 102 | 95 | 95.4 | 82.7 | 89.3 | 97.1 | 91.4 | 93.1 | 83.1 | 108 | 103 | 101 | 104 | 92 | > 10 | 1.7 | 0 | 0.6 | 0 | 0 | > 10 | > 10 | > 10
13 | Cc1sc2c(c1C)C(c1ccc(Cl)cc1)=N[C@@H](CC(=O)Nc1ccc(O)cc1)c1nnc(C)n1-2 [OTX015] | 105 | 94.5 | 95.6 | 84.6 | 53.1 | 109 | 113 | 108 | 82.3 | 55.9 | 106 | 110 | 85.1 | 47.4 | 24.9 | 99.7 | 102 | 89.3 | 62.9 | 38.8 | 97.5 | 92.7 | 84.5 | 21.8 | 8 |  | 4.3 | 4.7 | 11.6 | 8.2 | 16.3 | 0.434 | 0.592 | 0.298
